These results are taken from patent publication US20250145635A1, “COMPOUND CONTAINING BIS(AZANYLYLIDENE) SULFONYL STRUCTURE AND USE THEREOF IN MEDICINE” (SCINNOHUB PHARMACEUTICAL CO., LTD., priority 2021, published 2025).

In the assay the target is recombinant human PKR enzyme (Homo sapiens (Human), UniProt P30613). In words: Pyruvate kinase (PKR) activity experiment. It counts as biochemical. The settings on record: activation of recombinant human PKR enzyme. As for the experimental part: • 1). A recombinant human PKR enzyme solution was formulated at a concentration of 60 ng/well (a 20 μL reaction system), and 5 μL of the solution was added into each well of a black transparent bottom 384-well plate. • 2). Compound solutions were formulated at different concentrations, with the final concentrations of 1000/300/100 nM (containing 1% DMSO). Each 5 μL of the compound solution was added into the plate in item 3.1 and mixed well. The plate was incubated at room temperature for 10 min. • 3). A reaction system was formulated according to the instructions of a kit (as shown in the table below), and 10 μL of the reaction system was added into each well of the 384-well plate, and mixed uniformly with the solution in item 3.2.
• 4). The 384-well plate was placed on a microplate reader to detect the fluorescence value at 540/590 nm, where the value was read every 2 minutes and the detection was conducted continuously for 1 hour. • 5). The Slope value within the detection time was calculated, and the 0.1% DMSO well was used as a control well to calculate a compound activation rate.
[formula] • 6). Fitting dose-effect curve
With the log value of the compound concentration as the X axis and the percentage activation rate as the Y axis, a dose-effect curve was fitted with the log(agonist) vs. response-variable slope of the analysis software GraphPad Prism 5, and the AC50 value of the activity of each compound against PKR was obtained.

Chain of recombinant human PKR enzyme (P30613 whole entry): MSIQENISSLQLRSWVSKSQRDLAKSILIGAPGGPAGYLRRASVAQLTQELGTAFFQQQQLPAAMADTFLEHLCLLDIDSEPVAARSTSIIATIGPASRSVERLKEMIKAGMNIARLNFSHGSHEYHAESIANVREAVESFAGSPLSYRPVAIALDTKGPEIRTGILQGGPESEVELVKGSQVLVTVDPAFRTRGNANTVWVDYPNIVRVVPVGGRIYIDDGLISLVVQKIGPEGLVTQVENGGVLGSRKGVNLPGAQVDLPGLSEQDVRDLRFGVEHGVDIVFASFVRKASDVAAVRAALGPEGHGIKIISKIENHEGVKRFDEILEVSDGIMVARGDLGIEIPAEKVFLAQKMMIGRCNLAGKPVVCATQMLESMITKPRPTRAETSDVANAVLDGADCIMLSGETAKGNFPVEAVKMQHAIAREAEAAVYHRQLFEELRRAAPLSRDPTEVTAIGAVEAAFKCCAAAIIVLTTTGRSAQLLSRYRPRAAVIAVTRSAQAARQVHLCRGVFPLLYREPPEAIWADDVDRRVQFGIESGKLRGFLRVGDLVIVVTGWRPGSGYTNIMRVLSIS

What is called AC50 is the concentration giving half of the maximal activity seen. As for `O=C([C@H](CO)c1ccc(F)cc1)N1CC(=C2CN(S(=O)(=O)c3ccccn3)C2)C1` [Compound 54, (S)-2-(4-fluorophenyl)-3-hydroxy-1-(1′-(pyridin-2-ylsulfonyl)-1′,4′-dihydro-2H,2′H-[3,3′-diazetidinylidene]-1(4H)-yl)propan-1-one], the AC50 is less than 100 nM.
The figure for `O=C([C@H](CO)c1ccccc1)N1CC(=C2CN(S(=O)(=O)c3ccc(OC(F)F)cc3)C2)C1` [Compound 7, (S)-1-(1′-((4-(difluoromethoxy)phenyl)sulfonyl)-1′,4′-dihydro-2H,2′H-[3,3′-diazetidinylidene]-1(4H)-yl)-3-hydroxy-2-phenylpropan-1-one] is 101 to 300 nM.
The same measure for `N#Cc1ccc(C(CO)C(=O)N2CC(=C3CN(S(=O)(=O)c4ccccn4)C3)C2)cc1` (centres unmarked) [Compound 85, 4-(3-hydroxy-1-oxo-1-(1′-(pyridin-2-ylsulfonyl)-1′,4′-dihydro-2H,2′H-[3,3′-diazetidinylidene]-1(4H)-yl)propan-2-yl)benzonitrile]: 300 to 1000 nM; for `O=C([C@H](CO)c1ccccc1)N1CC(=C2CN(S(=O)(=O)c3ccc(OC(F)(F)F)cc3)C2)C1` [Compound 9, (S)-3-hydroxy-2-phenyl-1-(1′-((4-(trifluoromethoxy)phenyl)sulfonyl)-1′,4′-dihydro-2H,2′H-[3,3′-diazetidinylidene]-1(4H)-yl)propan-1-one]: 101 to 300 nM.
Consider `O=C([C@@H](CO)c1ccc(F)c(Cl)c1)N1CC(=C2CN(S(=O)(=O)c3ccccn3)C2)C1` [Compound 76, (R)-2-(3-chloro-4-fluorophenyl)-3-hydroxy-1-(1′-(pyridin-2-ylsulfonyl)-1′,4′-dihydro-2H,2′H-[3,3′-diazetidinylidene]-1(4H)-yl)propan-1-one], for which the AC50 lay in the range of 300 to 1000 nM.
Regarding `CNCC(C(=O)N1CC(=C2CN(S(=O)(=O)c3ccc4ncsc4c3)C2)C1)c1ccc(F)c(Cl)c1` (centres unmarked) [Compound 38, 1-(1′-(benzo[d]thiazol-6-ylsulfonyl)-1′,4′-dihydro-2H,2′H-[3,3′-diazetidinylidene]-1(4H)-yl)-2-(3-chloro-4-fluorophenyl)-3-(methylamino)propan-1-one], the half-maximal activity concentration (AC50) was 300 to 1000 nM.
The figure for `O=C([C@@H](CO)c1ccc(F)cc1)N1CC(=C2CN(S(=O)(=O)c3ccc4c(c3)OCCO4)C2)C1` [Compound 31, (R)-1-(1′-((2,3-dihydrobenzo[b][1,4]dioxin-6-yl)sulfonyl)-1′,4′-dihydro-2H,2′H-[3,3′-diazetidinylidene]-1(4H)-yl)-2-(4-fluorophenyl)-3-hydroxypropan-1-one] is 300 to 1000 nM.
`O=C([C@H](CO)c1ccc(F)c(Cl)c1)N1CC(=C2CN(S(=O)(=O)c3ccccn3)C2)C1` [Compound 77, (S)-2-(3-chloro-4-fluorophenyl)-3-hydroxy-1-(1′-(pyridin-2-ylsulfonyl)-1′,4′-dihydro-2H,2′H-[3,3′-diazetidinylidene]-1(4H)-yl)propan-1-one]: the AC50 is less than 100 nM.
As to `COc1ccc(C(CO)C(=O)N2CC(=C3CN(S(=O)(=O)c4ccc5ncsc5c4)C3)C2)cc1` (centres unmarked) [Compound 44, 1-(1′-(benzo[d]thiazol-6-ylsulfonyl)-1′,4′-dihydro-2H,2′H-[3,3′-diazetidinylidene]-1(4H)-yl)-3-hydroxy-2-(4-methoxyphenyl)propan-1-one], the half-maximal activity concentration (AC50) was less than 100 nM.
As to `Cc1ccc(C(CO)C(=O)N2CC(=C3CN(S(=O)(=O)c4ccc5ncsc5c4)C3)C2)cc1` (centres unmarked) [Compound 45, 1-(1′-(benzo[d]thiazol-6-ylsulfonyl)-1′,4′-dihydro-2H,2′H-[3,3′-diazetidinylidene]-1(4H)-yl)-3-hydroxy-2-(p-tolyl)propan-1-one], the concentration at half-maximal activity (AC50) is less than 100 nM.
As for `O=C([C@H](CO)c1ccc(F)cc1)N1CC(=C2CN(S(=O)(=O)c3ccc4ncsc4c3)C2)C1` [Compound 25, (S)-1-(1′-(benzo[d]thiazol-6-ylsulfonyl)-1′,4′-dihydro-2H,2′H-[3,3′-diazetidinylidene]-1(4H)-yl)-2-(4-fluorophenyl)-3-hydroxypropan-1-one], the AC50 was less than 100 nM.
The figure for `O=C([C@@H](CO)c1ccc(F)cc1F)N1CC(=C2CN(S(=O)(=O)c3ccccn3)C2)C1` [Compound 84, (R)-2-(2,4-difluorophenyl)-3-hydroxy-1-(1′-(pyridin-2-ylsulfonyl)-1′,4′-dihydro-2H,2′H-[3,3′-diazetidinylidene]-1(4H)-yl)propan-1-one] is 300 to 1000 nM; for `O=C([C@H](CO)c1ccccc1)N1CC(=C2CN(S(=O)(=O)c3cc(F)c4c(c3)OCCO4)C2)C1` [Compound 20, (S)-1-(1′-((8-fluoro-2,3-dihydrobenzo[b][1,4]dioxin-6-yl)sulfonyl)-1′,4′-dihydro-2H,2′H-[3,3′-diazetidinylidene]-1(4H)-yl)-3-hydroxy-2-phenylpropan-1-one] it is 101 to 300 nM.
Regarding `CN1CCN(c2cccc(C(CO)C(=O)N3CC(=C4CN(S(=O)(=O)c5ccc6ncsc6c5)C4)C3)c2)CC1` (centres unmarked) [Compound 33], the AC50 was in the range of 300 to 1000 nM.
As to `CNCC(C(=O)N1CC(=C2CN(S(=O)(=O)c3ccc4c(c3)OCCO4)C2)C1)c1cccc(OC)c1` (centres unmarked) [Compound 15, 1-(1′-((2,3-dihydrobenzo[b][1,4]dioxin-6-yl)sulfonyl)-1′,4′-dihydro-2H,2′H-[3,3′-diazetidinylidene]-1(4H)-yl)-2-(3-methoxyphenyl)-3-(methylamino)propan-1-one], the AC50 was 300 to 1000 nM.
As to `O=C([C@H](CO)c1ccccc1)N1CC(=C2CN(S(=O)(=O)c3ccc(OC(F)F)c(F)c3)C2)C1` [Compound 11], the half-maximal activity concentration (AC50) was in the range of 101 to 300 nM.
The figure for `O=C([C@H](CO)c1ccccc1)N1CC(=C2CN(S(=O)(=O)c3ccc(OC(F)F)cn3)C2)C1` [Compound 80, (S)-1-(1′-((5-(difluoromethoxy)pyridin-2-yl)sulfonyl)-1′,4′-dihydro-2H,2′H-[3,3′-diazetidinylidene]-1(4H)-yl)-3-hydroxy-2-phenylpropan-1-one] is less than 100 nM.
The figure for `O=C(C(CO)c1ccc(F)c(F)c1)N1CC(=C2CN(S(=O)(=O)c3ccccn3)C2)C1` (centres unmarked) [Compound 61, 2-(3,4-difluorophenyl)-3-hydroxy-1-(1′-(pyridin-2-ylsulfonyl)-1′,4′-dihydro-2H,2′H-[3,3′-diazetidinylidene]-1(4H)-yl)propan-1-one] is 300 to 1000 nM.
The figure for `CN1C(=O)COc2ccc(S(=O)(=O)N3CC(=C4CN(C(=O)[C@H](CO)c5ccccc5)C4)C3)cc21` [Compound 41, (S)-6-((1′-(3-hydroxy-2-phenylpropionyl)-1′,4′-dihydro-2H,2′H-[3,3′-diazetidinylidene]-1(4H)-yl)sulfonyl)-4-methyl-2H-benzo[b][1,4]oxazine-3(4H)-one] is 300 to 1000 nM.
For `O=C([C@H](CO)c1ccc(F)cc1F)N1CC(=C2CN(S(=O)(=O)c3ccccn3)C2)C1` [Compound 83, (S)-2-(2,4-difluorophenyl)-3-hydroxy-1-(1′-(pyridin-2-ylsulfonyl)-1′,4′-dihydro-2H,2′H-[3,3′-diazetidinylidene]-1(4H)-yl)propan-1-one], the concentration at half-maximal activity (AC50) is less than 100 nM.
With `O=C([C@H](CO)c1ccc(F)cc1)N1CC(=C2CN(S(=O)(=O)c3ccc4c(c3)OCCO4)C2)C1` [Compound 30, (S)-1-(1′-((2,3-dihydrobenzo[b][1,4]dioxin-6-yl)sulfonyl)-1′,4′-dihydro-2H,2′H—[3,3′-diazetidinylidene]-1(4H)-yl)-2-(4-fluorophenyl)-3-hydroxypropan-1-one], the AC50 was less than 100 nM.
The figure for `O=C([C@H](CO)c1ccccc1)N1CC(=C2CN(S(=O)(=O)c3ccc(OC4CC4)cn3)C2)C1` [Compound 82, (S)-1-(1′-((5-cyclopropoxypyridin-2-yl)sulfonyl)-1′,4′-dihydro-2H,2′H-[3,3′-diazetidinylidene]-1(4H)-yl)-3-hydroxy-2-phenylpropan-1-one] is less than 100 nM; for `N#Cc1ccc(S(=O)(=O)N2CC(=C3CN(C(=O)[C@H](CO)c4ccccc4)C3)C2)cc1` [Compound 65, (S)-4-(1′-(3-hydroxy-2-phenylpropionyl)-1′,4′-dihydro-2H,2′H-[3,3′-diazetidinylidene]-1(4H)-ylsulfonyl)benzonitrile] it is 101 to 300 nM; for `CC(C)Oc1ccc(S(=O)(=O)N2CC(=C3CN(C(=O)[C@H](CO)c4ccccc4)C3)C2)nc1` [Compound 81, (S)-3-hydroxy-1-(1′-((5-isopropoxypyridin-2-yl)sulfonyl)-1′,4′-dihydro-2H,2′H-[3,3′-diazetidinylidene]-1(4H)-yl)-2-phenylpropan-1-one] it is 101 to 300 nM.
As for `O=C([C@H](CO)c1ccccc1)N1CC(=C2CN(S(=O)(=O)c3ccc(-c4ncco4)c(F)c3)C2)C1` [Compound 27, (S)-1-(1′-((3-fluoro-4-(oxazol-2-yl)phenyl)sulfonyl)-1′,4′-dihydro-2H,2′H-[3,3′-diazetidinylidene]-1(4H)-yl)-3-hydroxy-2-phenylpropan-1-one], the concentration at half-maximal activity (AC50) was 300 to 1000 nM.
As for `O=C([C@H](CO)c1ccccc1)N1CC(=C2CN(S(=O)(=O)c3ccc4c(c3)NCCO4)C2)C1` [Compound 12, (S)-1-(1′-((3,4-dihydro-2H-benzo[b][1,4]oxazin-6-yl)sulfonyl)-1′,4′-dihydro-2H,2′H-[3,3′-diazetidinylidene]-1(4H)-yl)-3-hydroxy-2-phenylpropan-1-one], the AC50 is less than 100 nM.
